Several values for one entry are separate records, joined by “and”; a condition that tells them apart may be missing. Equal values may be shown once. Read-outs that look alike come from different tables or passages of the source. Blank lines part the entries; values can stand above or below the compound they belong to.
Legend:
[1] = biological target: T1, human cDNA-expressed CYP2C9 (Homo sapiens, UniProt P11712); test: Enzyme kinetics of JP-1366 metabolism in cDNA-expressed CYP2C9; assay type: in vitro ADME
T1 construct: purchased Corning Life Sciences
T1 sequence (P11712 whole entry): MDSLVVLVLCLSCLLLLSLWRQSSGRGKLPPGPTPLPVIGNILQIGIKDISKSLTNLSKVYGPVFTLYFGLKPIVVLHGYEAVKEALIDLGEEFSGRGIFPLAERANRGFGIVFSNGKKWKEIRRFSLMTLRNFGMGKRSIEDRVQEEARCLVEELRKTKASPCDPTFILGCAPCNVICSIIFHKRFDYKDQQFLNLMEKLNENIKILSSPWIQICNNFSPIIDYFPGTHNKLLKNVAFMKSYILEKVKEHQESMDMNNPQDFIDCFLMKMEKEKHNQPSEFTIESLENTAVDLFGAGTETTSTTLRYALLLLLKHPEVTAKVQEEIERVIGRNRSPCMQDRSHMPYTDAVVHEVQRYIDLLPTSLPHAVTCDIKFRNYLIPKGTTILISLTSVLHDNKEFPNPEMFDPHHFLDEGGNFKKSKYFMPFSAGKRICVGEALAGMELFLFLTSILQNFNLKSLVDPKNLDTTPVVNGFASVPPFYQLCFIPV
Description: (§1) The reaction was initiated by adding 5 μL of NADPH-generating system in triplicate, and the mixture was further incubated for 30 min at 37 °C in a shaking water bath.
(§2) The concentrations of the metabolites were quantitated, and their formation rates (pmol/mg protein/min) were calculated by dividing the amounts of metabolites formed from the incubation with human liver microsomes and human cDNA-expressed CYP or UGT enzymes by the incubation time.

[2] = biological target: T2, human cDNA-expressed CYP1A2 (Homo sapiens, UniProt P05177); test: Enzyme kinetics of JP-1366 metabolism in cDNA-expressed CYP1A2; assay type: in vitro ADME
T2 construct: purchased Corning Life Sciences
T2 sequence (P05177 1-516): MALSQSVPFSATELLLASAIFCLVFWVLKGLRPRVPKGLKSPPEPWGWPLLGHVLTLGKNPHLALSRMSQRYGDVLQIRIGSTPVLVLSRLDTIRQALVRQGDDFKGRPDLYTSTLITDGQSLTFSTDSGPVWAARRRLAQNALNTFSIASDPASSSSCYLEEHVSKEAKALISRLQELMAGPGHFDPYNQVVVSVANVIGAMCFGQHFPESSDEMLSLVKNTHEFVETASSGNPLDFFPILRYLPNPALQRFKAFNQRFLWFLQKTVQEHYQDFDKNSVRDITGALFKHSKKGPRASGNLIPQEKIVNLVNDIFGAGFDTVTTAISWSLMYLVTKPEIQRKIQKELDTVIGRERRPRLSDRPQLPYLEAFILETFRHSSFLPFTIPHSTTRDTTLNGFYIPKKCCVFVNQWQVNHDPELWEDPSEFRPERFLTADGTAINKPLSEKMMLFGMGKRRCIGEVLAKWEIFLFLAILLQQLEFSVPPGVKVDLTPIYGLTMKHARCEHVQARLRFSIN
Description: as §1, §2

[3] = biological target: T3, human cDNA-expressed CYP3A5 (Homo sapiens, UniProt P20815); test: Enzyme kinetics of JP-1366 metabolism in cDNA-expressed CYP3A5; assay type: in vitro ADME
T3 construct: purchased Corning Life Sciences
T3 sequence (P20815 whole entry): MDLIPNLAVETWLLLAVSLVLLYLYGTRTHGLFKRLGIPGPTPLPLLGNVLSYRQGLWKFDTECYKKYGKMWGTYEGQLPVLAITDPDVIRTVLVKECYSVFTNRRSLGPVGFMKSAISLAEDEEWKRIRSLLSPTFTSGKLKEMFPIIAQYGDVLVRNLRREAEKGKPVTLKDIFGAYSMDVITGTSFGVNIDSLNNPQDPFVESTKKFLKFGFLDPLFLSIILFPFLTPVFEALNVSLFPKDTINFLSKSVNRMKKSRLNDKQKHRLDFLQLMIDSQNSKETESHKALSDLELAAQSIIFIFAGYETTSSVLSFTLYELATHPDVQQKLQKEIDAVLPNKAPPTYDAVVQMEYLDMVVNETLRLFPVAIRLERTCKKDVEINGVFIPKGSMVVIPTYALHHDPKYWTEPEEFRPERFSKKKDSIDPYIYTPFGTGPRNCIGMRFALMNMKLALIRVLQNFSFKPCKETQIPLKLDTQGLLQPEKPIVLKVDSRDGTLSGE
Description: as §1, §2

CYP3A4/5 = test: Combined contribution of CYP3A4/5 to formation of major JP-1366 metabolites; assay type: in vitro ADME, human; settings: sum of CYP3A4 and CYP3A5 contributions
Description: as §1, §2

GERD lesion = settings: rats, compared with vonoprazan; cited from earlier work
α2B = α2B (Homo sapiens, UniProt P18089); test: BioPrint profiling, α2B; settings: BioPrint profiling (Eurofins CEREP)
Sequence of α2B (P18089 whole entry): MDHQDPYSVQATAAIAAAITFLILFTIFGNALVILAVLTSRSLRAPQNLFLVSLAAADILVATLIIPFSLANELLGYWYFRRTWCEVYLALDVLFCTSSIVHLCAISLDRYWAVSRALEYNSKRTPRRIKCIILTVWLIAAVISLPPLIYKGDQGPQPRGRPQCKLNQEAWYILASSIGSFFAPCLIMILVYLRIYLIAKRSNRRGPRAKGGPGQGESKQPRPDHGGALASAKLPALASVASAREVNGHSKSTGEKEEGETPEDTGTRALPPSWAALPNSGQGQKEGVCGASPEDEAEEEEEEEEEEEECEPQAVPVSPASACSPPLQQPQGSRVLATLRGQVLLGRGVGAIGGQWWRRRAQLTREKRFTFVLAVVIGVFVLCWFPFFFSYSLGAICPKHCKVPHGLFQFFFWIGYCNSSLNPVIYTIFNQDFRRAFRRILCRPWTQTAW

[4] = system: histamine-stimulated gastric acid secretion; set-up: method as in PMID 36504556; settings: Heidenhain pouch dog model; cited from earlier work
[5] = Metabolic stability of JP-1366 in monkey hepatocytes; assay type: in vitro ADME; settings: cryopreserved monkey hepatocytes
Description: (§3) According to the manufacturer’s protocol, cryopreserved human, dog, monkey, mouse, and rat hepatocytes were purified and recovered. […] The metabolic reaction in each sample well was quenched by adding 120 μL of ice-cold acetonitrile.
(§4) Log-transformed relative responses of JP-1366 were plotted against incubation time, thereby obtaining the elimination slope (k) from the linear regression analysis. […] (1) t1 /2(min)=ln2/kelimination slope (2) Clint(mL/min/kg)=ln2/t1/2×mL incubation/hepatocyte (10^6 cells)×B×10^6 cells/g liver×A g liver/kg BW (3) Clhep(mL/min/kg)=Qh×Clint/Qh+Clint (4) HER=Clhep/Qh
(§5) Here, A means the liver weight parameters and has values of 25.7, 32, 30, 87.5, and 40; B means the cell number parameters and has values of 139, 215, 120, 135, and 117; Qh represents hepatic blood flow and has values of 20.7, 30.9, 43.6, 90, and 55.2 mL/min/kg for humans, dogs, monkeys, mice, and rats, respectively. Hepatic extraction ratios (HERs) of ≤0.25, 0.25–0.75, and ≥0.75 were regarded as low, moderate, and high, respectively.

monkey hepatocytes = test: as above; assay type: in vitro ADME; settings: monkey hepatocytes
Description: as §3, §4, §5

gastric pH = settings: cited from earlier work; for % time pH > 4.0 over a period of 24 h: 40 mg dose group, healthy subjects
Cl^- channel = test: BioPrint profiling, Cl- channel; settings: BioPrint profiling (Eurofins CEREP)
[6] = formation of the labelled metabolite from JP-1366, CYP2C9
[7] = formation of the labelled metabolite from JP-1366, CYP1A2
[8] = formation of the labelled metabolite from JP-1366, CYP3A5

CLint [1, 6]: 0.14 μL/min/pmol CYP | n (Hill coefficient) [1, 6]: 1.2 | Contribution (%) ([1]; relative contribution of CYP2C9 to formation of the labelled metabolite): 10.3% | CLint [2, 7]: 0.0014 μL/min/pmol CYP | n (Hill coefficient) [2, 7]: 0.6 | Contribution (%) ([2]; relative contribution of CYP1A2 to formation of the labelled metabolite): 0.1% | CLint [3, 8]: 0.33 μL/min/pmol CYP | n (Hill coefficient) [3, 8]: 1.5 | Contribution (%) ([3]; relative contribution of CYP3A5 to formation of the labelled metabolite): 68.6% | contribution of CYP3A4/5 to formation of the metabolite from JP-1366 (CYP3A4/5): 85.9%
Structure (SMILES): Cc1cccc(CO)c1CNc1cc(C(=O)N2CCC2)cn2c(C)c(C)nc12 [M1, azetidin-1-yl(8-((2-(hydroxymethyl)-6-methyl-benzyl)amino)-2,3-dimethylimidazo[1,2-a]pyridin-6-yl)methanone]

IC50 (α2B): 1200 nM | CLint scaled at 1 µM ([5]; monkey hepatocytes, scaled with physiological parameters): 110 mL/min/kg | half-life at 1 µM ([5]; monkey): 48.4 min | CLhep (monkey hepatocytes): 31.1 mL/min/kg | HER (monkey hepatocytes): 0.72 | IC50 (Cl^- channel): 910 nM
Structure (SMILES): Cc1cccc(C)c1CNc1cc(C(=O)N2CCC2)cn2c(C)c(C)nc12 [JP-1366, 1-azetidinyl(8-(((2,6-dimethylphenyl)methyl)amino)-2,3-dimethylimidazo(1,2-a)pyridin-6-yl)methanone]
GERD lesion inhibition rates (GERD lesion): greater GERD lesion inhibition rates | inhibition of histamine-stimulated gastric acid secretion [4]: equal to or higher than vonoprazan | % time pH > 4.0 over a period of 24 h (gastric pH; MAD): 89.28 ± 9.12% and 89.28% ± 9.12% | % time pH > 4.0 over a period of 24 h (gastric pH; SAD): 91.84% ± 4.06% | % time pH > 4 at nighttime (gastric pH; repeated 40 mg dose): 89.28% ± 9.12%

From paper PMC11207335, “In Vitro Metabolism and Transport Characteristics of Zastaprazan” (Pharmaceutics, 2024)
